Here are results for seven compounds from ChEMBL document CHEMBL5465560, “Selectivity Literature for EUbOPEN Chemogenomic Library” (2024).

Experiment [1] has as its target Mitogen-activated protein kinase 7 (Homo sapiens) (UniProt Q13164). The experiment is described as follows: Selectivity interaction (Rxn Biology Kinase assay) EUB0001632a MAPK7. Particulars: at 10 µM.
The target in experiment [2] is T1, Dual specificity mitogen-activated protein kinase kinase 6 (Homo sapiens) (UniProt P52564).
T1 sequence (whole entry): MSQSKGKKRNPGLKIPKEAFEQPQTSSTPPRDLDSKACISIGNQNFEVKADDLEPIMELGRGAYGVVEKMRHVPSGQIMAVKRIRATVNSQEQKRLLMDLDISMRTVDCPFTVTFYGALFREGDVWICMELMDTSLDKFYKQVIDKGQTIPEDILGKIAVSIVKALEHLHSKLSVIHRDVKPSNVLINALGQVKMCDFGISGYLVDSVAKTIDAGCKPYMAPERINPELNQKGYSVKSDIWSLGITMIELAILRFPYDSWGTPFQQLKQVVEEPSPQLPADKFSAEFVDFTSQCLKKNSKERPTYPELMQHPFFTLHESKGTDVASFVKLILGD
Nature of the experiment: Selectivity interaction (KinomeScan (DiscoverX)) EUB0000595a MAP2K6. To be noted: at 10 µM.

The target in experiment [3] is Phosphatidylinositol 4-phosphate 5-kinase type-1 alpha (Homo sapiens) (UniProt Q99755). Particulars: at 10 µM.
In experiment [4] the target is T2, Rhodopsin kinase GRK7 (Homo sapiens) (UniProt Q8WTQ7).
T2 sequence (whole entry): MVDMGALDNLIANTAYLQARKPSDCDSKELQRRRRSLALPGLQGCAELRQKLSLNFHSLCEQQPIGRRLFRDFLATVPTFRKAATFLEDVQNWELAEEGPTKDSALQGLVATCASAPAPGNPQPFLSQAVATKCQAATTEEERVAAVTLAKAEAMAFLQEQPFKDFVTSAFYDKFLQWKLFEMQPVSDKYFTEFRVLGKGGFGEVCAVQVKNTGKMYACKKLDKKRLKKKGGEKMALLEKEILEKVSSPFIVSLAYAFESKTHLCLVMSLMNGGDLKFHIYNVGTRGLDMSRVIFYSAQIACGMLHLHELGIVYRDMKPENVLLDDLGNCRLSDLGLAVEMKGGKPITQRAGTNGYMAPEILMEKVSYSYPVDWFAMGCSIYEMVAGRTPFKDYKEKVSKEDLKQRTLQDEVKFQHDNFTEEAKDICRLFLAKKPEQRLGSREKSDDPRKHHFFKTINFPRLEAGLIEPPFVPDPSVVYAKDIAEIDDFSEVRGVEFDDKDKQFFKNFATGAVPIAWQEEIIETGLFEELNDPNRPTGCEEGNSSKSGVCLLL
The experiment is described as follows: Selectivity interaction (KinomeScan (DiscoverX)) EUB0000607a GRK7. Particulars: at 10 µM.

Experiment [5] deals with Dual specificity mitogen-activated protein kinase kinase 2 (Homo sapiens) (UniProt P36507). The experiment is described as follows: Selectivity interaction (KinomeScan (DiscoverX)) EUB0000607a MAP2K2. Particulars: at 10 µM.
Experiment [6] concerns the target Myosin light chain kinase, smooth muscle (Homo sapiens, UniProt Q15746). The experiment is described as follows: Selectivity interaction (KinomeScan (DiscoverX)) EUB0000045b MYLK.
The target in experiment [7] is T3, Testis-specific serine/threonine-protein kinase 1 (Homo sapiens) (UniProt Q9BXA7).
T3 sequence (whole entry): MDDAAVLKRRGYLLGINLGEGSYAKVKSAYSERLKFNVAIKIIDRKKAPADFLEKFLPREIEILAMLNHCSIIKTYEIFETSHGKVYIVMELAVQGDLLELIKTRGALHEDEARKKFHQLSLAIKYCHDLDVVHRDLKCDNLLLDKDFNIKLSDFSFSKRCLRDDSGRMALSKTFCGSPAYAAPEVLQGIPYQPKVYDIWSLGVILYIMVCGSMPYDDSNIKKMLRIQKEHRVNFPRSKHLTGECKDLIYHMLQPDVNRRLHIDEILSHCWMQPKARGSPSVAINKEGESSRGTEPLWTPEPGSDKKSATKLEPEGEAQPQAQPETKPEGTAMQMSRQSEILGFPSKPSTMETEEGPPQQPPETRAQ
The experiment is described as follows: Selectivity interaction (Upstate Kinase Profiler service (Millipore)) EUB0000056c TSSK1A. Particulars: at 1 µM.

Experiment [8] concerns the target T4, Serine/threonine-protein kinase Nek1 (Homo sapiens) (UniProt Q96PY6).
T4 sequence (whole entry): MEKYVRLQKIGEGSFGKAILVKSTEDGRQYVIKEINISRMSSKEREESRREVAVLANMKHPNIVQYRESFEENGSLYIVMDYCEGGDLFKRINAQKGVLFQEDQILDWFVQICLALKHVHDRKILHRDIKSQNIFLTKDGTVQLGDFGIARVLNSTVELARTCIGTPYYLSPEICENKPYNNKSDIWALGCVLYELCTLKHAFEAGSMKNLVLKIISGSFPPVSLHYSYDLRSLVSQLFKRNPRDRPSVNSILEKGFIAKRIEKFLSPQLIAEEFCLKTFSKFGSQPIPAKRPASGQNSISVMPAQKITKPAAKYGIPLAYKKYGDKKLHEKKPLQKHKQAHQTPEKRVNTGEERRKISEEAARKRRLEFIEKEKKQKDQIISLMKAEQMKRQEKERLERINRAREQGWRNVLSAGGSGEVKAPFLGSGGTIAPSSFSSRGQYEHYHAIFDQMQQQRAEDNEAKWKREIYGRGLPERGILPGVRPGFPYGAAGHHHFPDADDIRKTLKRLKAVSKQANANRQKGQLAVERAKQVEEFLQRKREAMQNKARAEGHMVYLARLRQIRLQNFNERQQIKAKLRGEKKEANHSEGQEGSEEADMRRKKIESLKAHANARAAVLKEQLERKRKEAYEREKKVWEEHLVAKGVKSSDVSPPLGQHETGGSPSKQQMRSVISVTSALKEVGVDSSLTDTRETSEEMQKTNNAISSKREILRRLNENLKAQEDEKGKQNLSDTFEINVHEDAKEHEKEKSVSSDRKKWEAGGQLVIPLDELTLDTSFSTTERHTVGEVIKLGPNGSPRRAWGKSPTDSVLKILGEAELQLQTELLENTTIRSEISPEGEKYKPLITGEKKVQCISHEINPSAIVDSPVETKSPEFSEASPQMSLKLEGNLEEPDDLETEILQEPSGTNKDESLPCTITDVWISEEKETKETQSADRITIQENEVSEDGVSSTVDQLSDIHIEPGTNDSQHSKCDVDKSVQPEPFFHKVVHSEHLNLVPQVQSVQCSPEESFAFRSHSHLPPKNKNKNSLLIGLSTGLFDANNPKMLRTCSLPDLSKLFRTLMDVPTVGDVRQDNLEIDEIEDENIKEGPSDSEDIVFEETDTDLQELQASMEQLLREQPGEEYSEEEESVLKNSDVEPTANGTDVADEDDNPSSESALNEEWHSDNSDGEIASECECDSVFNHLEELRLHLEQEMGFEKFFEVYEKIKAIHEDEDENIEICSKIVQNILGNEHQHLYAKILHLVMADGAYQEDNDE
The experiment is described as follows: Selectivity interaction (KinomeScan (DiscoverX)) EUB0000618a NEK1. To be noted: at 10 µM.

For experiment [9], the target named is Phosphatidylinositol 4-kinase beta (Homo sapiens, UniProt Q9UBF8). Nature of the experiment: Selectivity interaction (KinomeScan (DiscoverX)) EUB0000618a PI4KB. Particulars: at 10 µM.
Sequence of Phosphatidylinositol 4-kinase beta (Q9UBF8 2-816 limits assumed): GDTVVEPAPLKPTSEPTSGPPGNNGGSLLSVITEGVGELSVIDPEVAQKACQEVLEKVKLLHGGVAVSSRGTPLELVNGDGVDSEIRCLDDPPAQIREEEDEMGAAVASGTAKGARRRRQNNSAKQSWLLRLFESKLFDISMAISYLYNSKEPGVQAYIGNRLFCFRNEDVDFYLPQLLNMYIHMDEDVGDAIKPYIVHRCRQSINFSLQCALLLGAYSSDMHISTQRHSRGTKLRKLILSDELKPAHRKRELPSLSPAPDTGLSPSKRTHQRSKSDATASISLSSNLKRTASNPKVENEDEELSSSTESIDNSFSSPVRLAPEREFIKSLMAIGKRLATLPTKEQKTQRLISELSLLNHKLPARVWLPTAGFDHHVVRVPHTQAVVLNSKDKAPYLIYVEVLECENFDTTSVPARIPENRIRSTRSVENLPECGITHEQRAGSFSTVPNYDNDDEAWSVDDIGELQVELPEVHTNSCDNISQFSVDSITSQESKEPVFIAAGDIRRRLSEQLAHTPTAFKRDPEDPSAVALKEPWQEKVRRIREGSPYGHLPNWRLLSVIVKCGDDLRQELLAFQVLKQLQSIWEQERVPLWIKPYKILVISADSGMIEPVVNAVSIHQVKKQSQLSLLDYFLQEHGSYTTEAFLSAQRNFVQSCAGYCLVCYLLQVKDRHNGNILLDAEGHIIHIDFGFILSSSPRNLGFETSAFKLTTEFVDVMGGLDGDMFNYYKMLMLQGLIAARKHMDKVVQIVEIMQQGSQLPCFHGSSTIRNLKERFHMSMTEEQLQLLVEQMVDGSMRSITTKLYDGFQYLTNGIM

Sequence of Myosin light chain kinase, smooth muscle (Q15746 whole entry): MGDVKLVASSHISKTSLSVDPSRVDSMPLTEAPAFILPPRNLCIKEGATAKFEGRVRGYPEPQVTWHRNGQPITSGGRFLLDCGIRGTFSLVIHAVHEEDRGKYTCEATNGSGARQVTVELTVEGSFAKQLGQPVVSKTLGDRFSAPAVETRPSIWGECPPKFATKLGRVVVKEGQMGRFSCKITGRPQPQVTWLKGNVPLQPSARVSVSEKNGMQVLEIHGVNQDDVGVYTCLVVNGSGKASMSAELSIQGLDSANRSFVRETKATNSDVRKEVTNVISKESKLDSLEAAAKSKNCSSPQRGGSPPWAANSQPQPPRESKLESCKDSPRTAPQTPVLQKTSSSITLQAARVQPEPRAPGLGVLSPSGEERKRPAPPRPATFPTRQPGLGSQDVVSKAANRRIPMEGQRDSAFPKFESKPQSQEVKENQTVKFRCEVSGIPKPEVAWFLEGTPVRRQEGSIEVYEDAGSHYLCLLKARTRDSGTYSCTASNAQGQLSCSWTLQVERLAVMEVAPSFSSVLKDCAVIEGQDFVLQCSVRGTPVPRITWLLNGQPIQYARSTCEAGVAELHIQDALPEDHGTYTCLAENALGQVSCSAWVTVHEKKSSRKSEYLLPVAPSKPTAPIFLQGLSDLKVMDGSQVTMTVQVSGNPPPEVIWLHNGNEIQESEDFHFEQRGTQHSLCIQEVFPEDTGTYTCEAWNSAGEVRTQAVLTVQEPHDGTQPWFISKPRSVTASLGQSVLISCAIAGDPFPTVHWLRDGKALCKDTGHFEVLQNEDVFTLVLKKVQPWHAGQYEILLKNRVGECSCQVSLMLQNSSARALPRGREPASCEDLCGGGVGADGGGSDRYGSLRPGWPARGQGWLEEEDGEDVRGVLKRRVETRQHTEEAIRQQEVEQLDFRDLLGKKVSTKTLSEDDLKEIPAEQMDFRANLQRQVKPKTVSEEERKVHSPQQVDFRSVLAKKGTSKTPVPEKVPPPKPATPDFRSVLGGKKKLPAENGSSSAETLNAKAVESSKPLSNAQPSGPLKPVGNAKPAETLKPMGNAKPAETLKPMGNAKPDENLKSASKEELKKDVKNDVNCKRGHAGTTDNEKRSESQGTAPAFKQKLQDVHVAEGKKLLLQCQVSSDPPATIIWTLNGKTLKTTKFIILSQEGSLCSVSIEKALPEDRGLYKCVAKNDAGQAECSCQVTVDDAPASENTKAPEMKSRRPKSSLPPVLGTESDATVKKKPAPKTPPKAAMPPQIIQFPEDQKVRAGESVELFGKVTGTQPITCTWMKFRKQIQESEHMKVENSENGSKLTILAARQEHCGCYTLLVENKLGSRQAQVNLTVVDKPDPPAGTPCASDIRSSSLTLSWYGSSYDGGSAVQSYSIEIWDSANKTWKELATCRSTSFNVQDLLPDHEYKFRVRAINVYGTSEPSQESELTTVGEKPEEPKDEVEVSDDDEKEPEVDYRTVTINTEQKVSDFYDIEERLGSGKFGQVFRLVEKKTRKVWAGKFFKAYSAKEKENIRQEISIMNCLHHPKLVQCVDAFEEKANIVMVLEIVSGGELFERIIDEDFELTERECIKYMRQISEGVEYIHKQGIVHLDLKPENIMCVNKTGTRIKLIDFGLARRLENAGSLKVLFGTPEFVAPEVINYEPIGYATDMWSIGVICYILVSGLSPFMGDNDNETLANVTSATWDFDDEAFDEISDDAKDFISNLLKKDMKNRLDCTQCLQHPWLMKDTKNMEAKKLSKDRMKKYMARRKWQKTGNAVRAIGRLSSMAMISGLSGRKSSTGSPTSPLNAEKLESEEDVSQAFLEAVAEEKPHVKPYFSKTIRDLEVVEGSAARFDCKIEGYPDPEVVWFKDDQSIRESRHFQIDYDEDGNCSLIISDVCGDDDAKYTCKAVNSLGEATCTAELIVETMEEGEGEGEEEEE
Sequence of Dual specificity mitogen-activated protein kinase kinase 2 (Homo sapiens) (P36507 whole entry): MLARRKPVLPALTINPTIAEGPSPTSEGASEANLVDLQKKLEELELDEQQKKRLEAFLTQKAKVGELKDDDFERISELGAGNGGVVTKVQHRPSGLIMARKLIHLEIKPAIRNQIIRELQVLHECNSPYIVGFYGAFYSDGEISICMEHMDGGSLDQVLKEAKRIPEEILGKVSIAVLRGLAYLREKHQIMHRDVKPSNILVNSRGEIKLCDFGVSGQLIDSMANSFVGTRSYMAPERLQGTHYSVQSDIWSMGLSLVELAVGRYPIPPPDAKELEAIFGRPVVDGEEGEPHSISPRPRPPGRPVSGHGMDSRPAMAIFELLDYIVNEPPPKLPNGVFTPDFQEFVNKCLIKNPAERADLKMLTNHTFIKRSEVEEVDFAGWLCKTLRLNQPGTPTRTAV
Sequence of Phosphatidylinositol 4-phosphate 5-kinase type-1 alpha (Homo sapiens) (Q99755 whole entry): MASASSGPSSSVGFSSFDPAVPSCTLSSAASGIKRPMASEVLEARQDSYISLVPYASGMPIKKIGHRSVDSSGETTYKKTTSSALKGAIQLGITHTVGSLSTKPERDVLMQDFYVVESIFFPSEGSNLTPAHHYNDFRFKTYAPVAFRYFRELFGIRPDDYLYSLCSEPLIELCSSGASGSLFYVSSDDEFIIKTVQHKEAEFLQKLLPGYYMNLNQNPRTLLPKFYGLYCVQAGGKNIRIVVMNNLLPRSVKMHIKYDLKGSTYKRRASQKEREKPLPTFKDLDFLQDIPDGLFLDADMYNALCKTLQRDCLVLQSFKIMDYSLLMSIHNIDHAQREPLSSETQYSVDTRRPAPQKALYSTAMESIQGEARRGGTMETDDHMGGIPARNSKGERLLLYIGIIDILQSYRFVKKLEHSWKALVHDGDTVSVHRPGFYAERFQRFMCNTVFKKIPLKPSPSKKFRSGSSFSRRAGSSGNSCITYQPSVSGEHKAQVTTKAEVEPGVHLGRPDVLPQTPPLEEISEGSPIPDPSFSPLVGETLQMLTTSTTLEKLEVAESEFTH
Sequence of Mitogen-activated protein kinase 7 (Homo sapiens) (Q13164 2-816 limits assumed): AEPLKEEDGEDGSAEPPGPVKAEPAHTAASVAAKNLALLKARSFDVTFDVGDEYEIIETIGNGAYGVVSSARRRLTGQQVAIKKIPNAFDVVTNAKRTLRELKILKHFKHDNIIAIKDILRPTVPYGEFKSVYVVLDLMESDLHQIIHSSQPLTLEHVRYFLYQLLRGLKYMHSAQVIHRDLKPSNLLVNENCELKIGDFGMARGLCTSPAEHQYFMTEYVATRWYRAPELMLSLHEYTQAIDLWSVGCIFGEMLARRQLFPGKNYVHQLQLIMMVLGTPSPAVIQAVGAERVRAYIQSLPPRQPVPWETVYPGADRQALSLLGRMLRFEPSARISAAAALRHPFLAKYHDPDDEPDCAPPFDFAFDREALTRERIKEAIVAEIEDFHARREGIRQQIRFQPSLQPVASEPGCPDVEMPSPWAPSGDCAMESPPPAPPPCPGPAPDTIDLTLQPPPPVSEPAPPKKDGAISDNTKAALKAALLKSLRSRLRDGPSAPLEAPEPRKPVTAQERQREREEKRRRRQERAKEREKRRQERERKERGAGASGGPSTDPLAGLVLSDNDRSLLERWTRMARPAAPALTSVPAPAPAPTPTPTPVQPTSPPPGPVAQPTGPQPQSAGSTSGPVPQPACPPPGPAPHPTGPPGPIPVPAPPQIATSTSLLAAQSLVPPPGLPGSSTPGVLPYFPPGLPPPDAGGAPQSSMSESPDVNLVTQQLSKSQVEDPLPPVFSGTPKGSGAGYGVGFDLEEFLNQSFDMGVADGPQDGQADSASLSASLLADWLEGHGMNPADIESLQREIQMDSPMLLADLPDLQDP

As to `Cn1cc(-n2cnc3c(NCc4nc5cc(Cl)c(Cl)cc5[nH]4)nc(N4CCOCC4)nc32)cn1`, in [1], the % of inhibition is -42.4%.
As for `COCC(=O)NC/C=C/c1ccc2ncnc(Nc3ccc(Oc4ccc(C)nc4)c(C)c3)c2c1` [CP-724714], the % of control in [2] turned out to be 93%.
`CCN(CC)CCCCNc1ncc2cc(-c3cc(OC)cc(OC)c3)c(NC(=O)NC(C)(C)C)nc2n1` came in with a % of control in experiment [3] of 100%.
On to `CNC(=O)Nc1ccc(-c2nc(N3CC4CCC(C3)O4)c3cnn(C4CCC5(CC4)OCCO5)c3n2)cc1`, for which the % of control in experiment [4] came to 91%; in experiment [5], 100%.
`C=CC(=O)Nc1cc(-n2c(=O)ccc3cnc4ccc(-c5ccc(NS(C)(=O)=O)cc5)cc4c32)ccc1C`: the % of control was 90% in experiment [6] (at 1 µM) and 100% in [6] (at 10 µM).
Turning to `Cc1ccc(-c2ccc3c(ccc4sc5c(c43)NC[C@@H](C)NC5=O)n2)cn1`, the % of inhibition in [7] turned out to be 35%.
`O[C@H]1CC[C@H](Nc2ncc3nc(Nc4c(F)cc(F)cc4F)n([C@H]4CCOC4)c3n2)CC1`: the % of control in experiment [8] is 97%; in experiment [9] it was 100%.
